Literature values, collected in patent publication US20040014215A1, “Synchronised arabidopsis cell suspensions and uses thereof” (priority 2000, published 2004).

How the values were obtained:
[1] = system: Arabidopsis cell suspension cultures; conditions: low concentration of cycloheximide, release by washing; cited from earlier work
cell cycle = conditions: phase of the cell cycle at which cells are arrested; cited from earlier work
[2] = system: plant cells derived from a petunia protoplast culture; conditions: cited from earlier work
[3] = system: purified CDK/cyclin complexes; conditions: cited from earlier work
tobacco BY-2 cell line = conditions: BY-2 pre-synchronised with aphidicolin, then propyzamide for a few hours and removal; cited from earlier work

C[C@@H]1C[C@@H]([C@H](O)CC2CC(=O)NC(=O)C2)C(=O)[C@@H](C)C1 [cycloheximide]
peak mitotic index [1]: 9%

NC(Cn1ccc(=O)c(O)c1)C(=O)O (stereo not drawn) [mimosine]
cell cycle arrest (cell cycle): early S
cell cycle block [2]: reversible block during G1 and in early/mid S-phase

NC(=O)NO [hydroxyurea]
cell cycle arrest (cell cycle): G1/S phase boundary

CC[C@H](CO)Nc1nc(NCc2ccccc2)c2ncn(C(C)C)c2n1 [roscovitine]
histone H1 kinase activity [3]: inhibit the histone H1 kinase activity

C#CC(C)(C)NC(=O)c1cc(Cl)cc(Cl)c1 [propyzamide]
mitotic index (tobacco BY-2 cell line): 80-90%
